Measurements taken from patent US12492174B2, “Morpholine-3-carboxamide derivatives as prostaglandin E2 receptor 4 (EP4) agonists for the treatment of gastrointestinal and pulmonary diseases” (NXERA PHARMA UK LIMITED, priority 2022, dated 2025).

How the values were obtained:
[1] = Unidirectional Caco-2 cell permeability assay; assay type: in vitro ADME; conditions: human, n=2, apical pH 6.5, basolateral pH 7.4, 1 hour, 37° C.
Description: Caco-2 cells (ECACC) were seeded onto 24-well Transwell plates at 2×10^5 cells per well and used in confluent monolayers after a 21 day culture at 37° C. under 5% CO2. Test compounds were incubated at 10 μM, 0.2% DMSO final, n=2 in assay buffer (Hanks balanced salt solution supplemented with 25 mM HEPES, adjusted to pH 6.5). Hanks balanced salt solution supplemented with 25 mM HEPES, adjusted to pH 7.4 (0.2% DMSO final) was used for the basolateral chamber (as receiver).
Incubations were performed at 37° C., with samples removed from both donor and acceptor chambers at T=0 and 1 hour and compound analysed by mass spectrometry (LC-MS/MS) including an analytical internal standard (0.5 μM carbamazepine).
Apparent permeability (Papp) values are shown in Table 4 and were determined from the relationship:
Where V is the volume of each Transwell compartment (apical 125 μL, basolateral 600 μL), and concentrations are the relative MS responses for compound (normalized to internal standard) in the donor chamber before incubation and acceptor chamber at the end of the incubation Area=area of cells exposed for drug transfer (0.33 cm^2).
Lucifer Yellow (LY) was added to the apical buffer in all wells to assess viability of the cell layer. As LY cannot freely permeate lipophilic barriers, a high degree of LY transport indicates poor integrity of the cell layer and wells with a LY Papp>10×10^−6 cm/s were rejected.
Compound recovery from the wells was determined from MS responses (normalized to internal standard) in donor and acceptor chambers at the end of incubation compared to response in the donor chamber pre-incubation.

[2] = molecular target: T1, human EP4 (Homo sapiens, UniProt P35408); assay: cAMP Gs functional assay (HTRF cAMP dynamic-2); assay type: cell-based; conditions: for Emax: HEK293, HEK293 cells transfected with EP4 Bacmam virus, positive control 10 uM PGE2; for EC50: HEK293 cells transfected with EP4 Bacmam virus, 30 mins at 37° C., −Log of the molarity (M), read-out: cAMP human EP4 pEC50 (converted)
T1 construct: expressed in transfected cells; host or cells: HEK293 cells transduced with EP4 BacMam virus
Description: Cloning, Baculovirus generation, large scale infection of HEK293 cells and membrane preparation: Human prostaglandin E2 receptor 4 (EP4) was cloned into pBacMam expression vector (GeneScript, UK). Transposition of EP4 DNA was performed using Invitrogen's Bac-to-Bac Baculovirus Expression Systems. P0 baculovirus was generated by transfecting SF9 Cells with bacmid DNA using Cellfectin II transfection reagent (ThermoFisher Scientific, UK). Following P0 generation P1 virus was then generated ready for large scale infection and membrane preparation. HEK293 cells were grown in DMEM (ThermoFisher Scientific, UK), supplemented with 10% heat inactivated fetal bovine serum (FBS). Cells were infected at a seeding density of 3.5 million cells/mL in 500 cm^3 flasks at 5% v/v EP4 Bacman. Expression was carried out over a 36 hr period at 37° C. with 5% CO2. The cells were removed using PBS and a cell scrapper. The cell culture was centrifuged at 2500 RPM for 10 mins at 4° C. The supernatant was then poured off and the pellet stored at −80° C. The pellet was defrosted and re-suspended in 15 mL of homogenising buffer (20 mM HEPES, 10 mM EDTA, pH 7.4). Then homogenised in mechanical homogeniser (VMR) for 10 seconds. The membrane was centrifuged in centrifuge tubes at 40,000 g for 15 mins at 4° C. The supernatant was poured away and re-suspended in 15 mL of homogenising buffer. Homogenised for 20 seconds. The membrane was centrifuged at 40,000 g for 45 mins at 4° C. The membrane was re-suspended in 3 mL of storage buffer (20 mM HEPES, 0.1 mM EDTA, pH 7.4) mixing well. The resulting membranes were then stored at −80° C.
cAMP Gs Functional Assay: cAMP production following EP4 receptor activation was determined using the Homogeneous Time-Resolved Fluorescence (HTRF) cAMP dynamic-2 assay (Cisbio, France). HEK293 cells were transfected using a 0.5% EP4 Bacmam virus for 36 hours, before dissociating the cells, and freezing at −150° C.
On the day of testing, increasing concentration of test compounds, alongside positive controls (10 uM PGE2 (Tocris, Abingdon, UK)) and negative control (DMSO (Sigma-Aldrich, UK) were added to a ProxiPlate-384 Plus, White 384-shallow well Mircoplate, (PerkinElmer, USA) using the ECHO dispense.
Cells were defrosted in a water bath and resuspended in DMEM supplemented with 10% FBS before centrifuging at 1200 RPM for 5 mins to form a pellet. The pellet was resuspended in assay buffer (DMEM+0.5 mM IBMX (Tocris, Abingdon, UK)) to 0.5×10^6 cells/mL. Cell suspension, for a final assay concentration of 5000 cell/well was added using the multidrop to the pre-dispensed assay plate. The plate was then incubated at 37° C. for 30 mins, with 5% CO2. The cAMP production was determined as manufacturer's instructions, before plates were read on a PheraStar fluorescence plate reader (BMG LabTech, Germany).
The pEC50 values (−Log of the molarity (M) in mol/liter) were calculated from the mid-point of the curve using dotmatics as shown in Table 3.

T1 sequence (P35408 whole entry): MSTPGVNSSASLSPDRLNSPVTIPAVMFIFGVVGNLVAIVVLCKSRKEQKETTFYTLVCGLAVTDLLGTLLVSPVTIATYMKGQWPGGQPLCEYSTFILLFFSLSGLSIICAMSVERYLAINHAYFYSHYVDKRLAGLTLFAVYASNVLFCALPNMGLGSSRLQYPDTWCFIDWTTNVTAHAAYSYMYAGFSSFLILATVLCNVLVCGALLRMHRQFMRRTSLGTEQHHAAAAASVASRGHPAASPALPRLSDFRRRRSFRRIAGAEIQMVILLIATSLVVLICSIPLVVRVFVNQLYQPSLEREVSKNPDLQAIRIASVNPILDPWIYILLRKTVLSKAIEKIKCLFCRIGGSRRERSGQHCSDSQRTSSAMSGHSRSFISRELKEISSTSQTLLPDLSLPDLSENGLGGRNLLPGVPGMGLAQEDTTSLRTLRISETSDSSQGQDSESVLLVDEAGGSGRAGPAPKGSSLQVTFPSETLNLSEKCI

For `Cc1cc(C(N)=O)ccc1-c1cccc(CN2CCOC[C@@H]2C(=O)NC2(c3ccc(C(=O)O)cc3)CC2)c1` [Example 31, (R)-4-(1-(4-((4′-carbamoyl-2′-methyl-[1,1′-biphenyl]-3-yl)methyl)morpholine-3-carboxamido)cyclopropyl)benzoic acid], which Papp A→B at 1 h, 10 μM [1] is on record?
Its Papp A→B at 1 h, 10 μM is 0.66 ×10⁻⁶ cm/s.

What about the Emax [2] of the same compound?
The Emax was 98%.

And the EC50 [2]?
Its EC50 is 1.26e-10 M.

With `Cc1cc(C(N)=O)ccc1-c1cc(O)cc(CN2CCOC[C@H]2C(=O)N[C@H](C)c2ccc(C(=O)O)cc2)c1` [Example 38, 4-((R)-1-((S)-4-((4′-carbamoyl-5-hydroxy-2′-methyl-[1,1′-biphenyl]-3-yl)methyl)morpholine-3-carboxamido)ethyl)benzoic acid] as the compound, how does the Papp A→B at 1 h, 10 μM [1] read?
The Papp A→B at 1 h, 10 μM was < 0.1 ×10⁻⁶ cm/s.

What about the Emax [2] of the same compound?
Its Emax is 94%.

And the EC50 [2]?
The EC50 was 2e-08 M.
